The results in this text go back to US20170081338A1, “SUBSTITUTED HETEROARYL COMPOUNDS AND METHODS OF USE” (Sunshine Lake Pharma Co., Ltd., priority 2015, published 2017).

The target in one data set is T1, JAK1 (h) (Homo sapiens, UniProt P23458).
T1 construct: purchased Millipore UK Ltd (contract assay service)
In words: JAK1 (h) kinase assay. In kind it is biochemical. How it is done:
(§1) Kinase assays can be performed by measurement of incorporation of γ-^33P ATP into immobilized myelin basic protein (MBP). High binding white 384 well plates (Greiner) are coated with MBP (Sigma #M-1891) by incubation of 60 μL/well of 20 μg/mL MBP in Tris-buffered saline (TBS; 50 mM Tris pH 8.0, 138 mM NaCl, 2.7 mM KCl) for 24 h at 4° C. Plates are washed 3× with 100 μL TBS. Kinase reactions are carried out in a total volume of 34 μL in kinase buffer (according to the need to make, for example, 5 mM Hepes pH 7.6, 15 mM NaCl, 0.01% bovine gamma globulin (Sigma #1-5506), 10 mM MgCl2, 1 mM DTT, 0.02% TritonX-100). Compound dilutions are performed in DMSO and added to assay wells to a final DMSO concentration of 1%. Each data point is measured in duplicate, and at least two duplicate assays are performed for each individual compound determination. Enzyme is added to final concentrations of 10 nM or 20 nM, for example. A mixture of unlabeled ATP and γ-^33P ATP is added to start the reaction (2×10^6 cpm of γ-^33P ATP per well (3000 Ci/mmole) and 10 μM unlabeled ATP, typically. The reactions are carried out for 1 h at room temperature with shaking. Plates are washed 7× with TBS, followed by the addition of 50 µL/well scintillation fluid (Wallac). Plates are read using a Wallac Trilux counter. This is only one format of such assays; various other formats are possible, as known to one skilled in the art.
(§2) The above assay procedure can be used to determine the IC50 for inhibition and/or the inhibition constant, Ki. The IC50 is defined as the concentration of compound required to reduce the enzyme activity by 50% under the condition of the assay. The IC50 value is estimated by preparing a 10 point curve using a 1/2 log dilution series (for example, a typical curve may be prepared using the following compound concentrations: 3 μM, 1 μM, 0.3 μM, 0.1 μM, 0.03 μM, 0.01 μM, 0.003 μM, 0.001 μM, 0.0003 μM and 0 μM).
JAK1 (h) is incubated with 20 mM Tris/HCl pH 7.5, 0.2 mM EDTA, 500 μM GEEPLYWSFPAKKK, 10 mM MgAcetate and [γ-^33P-ATP] (specific activity approx. 500 cpm/pmol, concentration as required). The reaction is initiated by the addition of the MgATP mix. After incubation for 40 minutes at room temperature, the reaction is stopped by the addition of 3% phosphoric acid solution. 10 μL of the reaction is then spotted onto a P30 filtermat and washed three times for 5 minutes in 75 mM phosphoric acid and once in methanol prior to drying and scintillation counting.
(§3) The kinase assays described herein were performed at Millipore UK Ltd, Dundee Technology Park, Dundee DD2 1SW, UK.

The target of a further data set is T2, Aurora-A (h) (Homo sapiens, UniProt O14965).
T2 construct: purchased Millipore UK Ltd (contract assay service)
T2 sequence (O14965 1-403): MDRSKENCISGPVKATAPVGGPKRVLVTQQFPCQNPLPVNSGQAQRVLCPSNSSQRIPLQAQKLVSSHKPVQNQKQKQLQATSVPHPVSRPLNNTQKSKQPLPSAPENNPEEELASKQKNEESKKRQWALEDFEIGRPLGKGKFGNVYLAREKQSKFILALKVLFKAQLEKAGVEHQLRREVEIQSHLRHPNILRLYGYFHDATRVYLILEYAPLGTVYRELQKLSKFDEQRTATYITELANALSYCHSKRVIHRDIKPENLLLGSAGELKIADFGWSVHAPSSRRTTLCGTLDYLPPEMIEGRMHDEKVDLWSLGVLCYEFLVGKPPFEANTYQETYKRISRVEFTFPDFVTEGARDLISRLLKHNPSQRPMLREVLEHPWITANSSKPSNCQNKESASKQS
In words: Aurora-A (h) kinase assay. The class given is biochemical. The method, boiled down: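 Human Aurora-A incubated with 200 μM Kemptide, 10 mM Mg acetate, [γ-33P]ATP in 8 mM MOPS pH 7.0 for 40 min at room temperature; stopped with phosphoric acid, spotted on P30 filtermat and scintillation counted. IC50 from 10-point ½-log dilution series.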

Data set [1] in a line: Pharmacokinetics after intravenous and oral administration in rats. The class given is in vivo. The method, boiled down: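 Compounds dosed IV at 0.5, 1 or 2 mg/kg and orally at 0.5, 1, 5 or 10 mg/kg in rats, as solution, suspension or capsule formulations. Serial blood sampled out to 24 h and plasma stored frozen. Plasma levels quantified by LC/MS/MS in ESI MRM mode.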
The target of another data set is T3, Aurora-B (h) (Homo sapiens, UniProt Q96GD4).
T3 construct: purchased Millipore UK Ltd (contract assay service)
In words: Aurora-B (h) kinase assay. In kind it is biochemical. How it is done: as §1, §2
Aurora-B (h) is incubated with 8 mM MOPS pH 7.0, 0.2 mM EDTA, 30 μM AKRRRLSSLRA, 10 mM MgAcetate and [γ-^33PATP] (specific activity approx. 500 cpm/pmol, concentration as required). The reaction is initiated by the addition of the MgATP mix. After incubation for 40 minutes at room temperature, the reaction is stopped by the addition of a 3% phosphoric acid solution. 10 μL of the reaction is then spotted onto a P30 filtermat and washed three times for 5 minutes in 75 mM phosphoric acid and once in methanol prior to drying and scintillation counting.
as §3

Where [2] appears, read: rat, plasma, iv dosing, dose 1 mg/kg.

T3 sequence (Q96GD4 whole entry): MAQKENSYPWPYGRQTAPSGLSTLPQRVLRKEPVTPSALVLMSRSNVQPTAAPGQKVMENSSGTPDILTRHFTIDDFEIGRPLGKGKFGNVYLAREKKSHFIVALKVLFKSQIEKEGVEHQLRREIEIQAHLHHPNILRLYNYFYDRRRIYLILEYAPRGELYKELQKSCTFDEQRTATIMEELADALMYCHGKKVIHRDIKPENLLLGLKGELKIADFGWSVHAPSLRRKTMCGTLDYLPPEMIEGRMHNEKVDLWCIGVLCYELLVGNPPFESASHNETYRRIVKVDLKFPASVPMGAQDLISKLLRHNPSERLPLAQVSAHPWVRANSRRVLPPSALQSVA
T1 sequence (P23458 whole entry): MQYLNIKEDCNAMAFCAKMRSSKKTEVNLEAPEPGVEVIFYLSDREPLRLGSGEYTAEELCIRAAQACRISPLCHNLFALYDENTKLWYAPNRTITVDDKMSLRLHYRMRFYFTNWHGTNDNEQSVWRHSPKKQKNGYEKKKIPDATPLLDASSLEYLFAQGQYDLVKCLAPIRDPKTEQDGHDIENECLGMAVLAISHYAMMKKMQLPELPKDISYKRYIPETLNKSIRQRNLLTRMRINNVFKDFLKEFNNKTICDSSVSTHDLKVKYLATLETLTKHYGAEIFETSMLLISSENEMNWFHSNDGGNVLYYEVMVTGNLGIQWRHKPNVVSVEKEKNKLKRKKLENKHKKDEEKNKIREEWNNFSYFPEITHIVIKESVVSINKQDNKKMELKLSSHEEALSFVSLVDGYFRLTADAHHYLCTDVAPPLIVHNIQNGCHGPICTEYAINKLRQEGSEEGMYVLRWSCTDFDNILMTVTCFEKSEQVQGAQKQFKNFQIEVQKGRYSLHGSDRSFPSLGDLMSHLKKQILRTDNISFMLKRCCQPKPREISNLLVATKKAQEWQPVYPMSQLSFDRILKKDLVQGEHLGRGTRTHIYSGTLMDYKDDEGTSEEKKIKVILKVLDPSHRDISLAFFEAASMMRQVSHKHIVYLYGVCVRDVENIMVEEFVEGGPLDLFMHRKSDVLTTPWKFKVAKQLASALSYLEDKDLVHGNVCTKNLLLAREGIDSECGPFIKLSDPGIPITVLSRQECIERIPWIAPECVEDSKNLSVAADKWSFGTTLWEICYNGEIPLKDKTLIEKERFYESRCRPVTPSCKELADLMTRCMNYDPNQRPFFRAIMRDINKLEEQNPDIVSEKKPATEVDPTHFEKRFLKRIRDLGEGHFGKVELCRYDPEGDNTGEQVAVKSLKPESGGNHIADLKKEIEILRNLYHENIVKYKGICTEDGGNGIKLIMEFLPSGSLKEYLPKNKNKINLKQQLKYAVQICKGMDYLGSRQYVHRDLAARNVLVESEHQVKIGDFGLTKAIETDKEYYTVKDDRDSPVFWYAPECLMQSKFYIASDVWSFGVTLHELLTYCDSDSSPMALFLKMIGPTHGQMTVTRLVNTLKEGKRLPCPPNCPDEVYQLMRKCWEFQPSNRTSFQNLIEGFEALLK

Turning to `Cn1cc(Nc2ncc(Cl)c(N[C@@H]3COC4C3OC[C@@H]4NS(=O)(=O)CC3CCCC3)n2)cn1` (stereo partly drawn) [Ex. 21, N-((3S,6R)-6-((5-chloro-2-((1-methyl-1H-pyrazol-4-yl)amino)pyrimidin-4-yl)amino)hexahydrofuro[3,2-b]furan-3-yl)-1-cyclopentylmethanesulfonamide], the concentration for half-maximal inhibition (IC50) at JAK1 (h) was 24 nM; on Aurora-A (h), 2 nM; against Aurora-B (h), 6 nM. Further, the “Clearance (CL) after iv dosing” value in data set [1] (iv dosing, dose 1 mg/kg) stood at 1.49 L/h/kg. The same compound gave a F in data set [1] (oral bioavailability) of 63.7%. The AUC(0-t) in data set [1] (setting [2]) stood at 680 ng·h/mL. In data set [1] (setting [2]), this compound gave a half-life of 18 min. Moreover, the Vd in data set [1] (rat, plasma, iv dosing, dose 1 mg/kg, read-out: Vss) turned out to be 0.69 L/kg.

A word on the IC50: it is the concentration at which inhibition is half-maximal. A low value points to inhibition by little substance. The AUC(0-t) is the area under the concentration-time curve up to a stated or last time point. The term half-life denotes the time in which the quantity being followed falls by half.
